Here are results for 26 compounds from patent US7745443B2 (Sanofi-Aventis Deutschland GmbH, priority 2002, dated 2010).

pIC50: −log10 of the molar value.

Usually pIC50 stands for −log10 of the IC50, conventionally taken in molar units. Higher therefore signals a low IC50.

binding of human von Willebrand factor to europium (Eu)-chelate-labeled chimeric GPIb-Fc protein, sequence (P04275 764-2813 limits assumed, change not shown): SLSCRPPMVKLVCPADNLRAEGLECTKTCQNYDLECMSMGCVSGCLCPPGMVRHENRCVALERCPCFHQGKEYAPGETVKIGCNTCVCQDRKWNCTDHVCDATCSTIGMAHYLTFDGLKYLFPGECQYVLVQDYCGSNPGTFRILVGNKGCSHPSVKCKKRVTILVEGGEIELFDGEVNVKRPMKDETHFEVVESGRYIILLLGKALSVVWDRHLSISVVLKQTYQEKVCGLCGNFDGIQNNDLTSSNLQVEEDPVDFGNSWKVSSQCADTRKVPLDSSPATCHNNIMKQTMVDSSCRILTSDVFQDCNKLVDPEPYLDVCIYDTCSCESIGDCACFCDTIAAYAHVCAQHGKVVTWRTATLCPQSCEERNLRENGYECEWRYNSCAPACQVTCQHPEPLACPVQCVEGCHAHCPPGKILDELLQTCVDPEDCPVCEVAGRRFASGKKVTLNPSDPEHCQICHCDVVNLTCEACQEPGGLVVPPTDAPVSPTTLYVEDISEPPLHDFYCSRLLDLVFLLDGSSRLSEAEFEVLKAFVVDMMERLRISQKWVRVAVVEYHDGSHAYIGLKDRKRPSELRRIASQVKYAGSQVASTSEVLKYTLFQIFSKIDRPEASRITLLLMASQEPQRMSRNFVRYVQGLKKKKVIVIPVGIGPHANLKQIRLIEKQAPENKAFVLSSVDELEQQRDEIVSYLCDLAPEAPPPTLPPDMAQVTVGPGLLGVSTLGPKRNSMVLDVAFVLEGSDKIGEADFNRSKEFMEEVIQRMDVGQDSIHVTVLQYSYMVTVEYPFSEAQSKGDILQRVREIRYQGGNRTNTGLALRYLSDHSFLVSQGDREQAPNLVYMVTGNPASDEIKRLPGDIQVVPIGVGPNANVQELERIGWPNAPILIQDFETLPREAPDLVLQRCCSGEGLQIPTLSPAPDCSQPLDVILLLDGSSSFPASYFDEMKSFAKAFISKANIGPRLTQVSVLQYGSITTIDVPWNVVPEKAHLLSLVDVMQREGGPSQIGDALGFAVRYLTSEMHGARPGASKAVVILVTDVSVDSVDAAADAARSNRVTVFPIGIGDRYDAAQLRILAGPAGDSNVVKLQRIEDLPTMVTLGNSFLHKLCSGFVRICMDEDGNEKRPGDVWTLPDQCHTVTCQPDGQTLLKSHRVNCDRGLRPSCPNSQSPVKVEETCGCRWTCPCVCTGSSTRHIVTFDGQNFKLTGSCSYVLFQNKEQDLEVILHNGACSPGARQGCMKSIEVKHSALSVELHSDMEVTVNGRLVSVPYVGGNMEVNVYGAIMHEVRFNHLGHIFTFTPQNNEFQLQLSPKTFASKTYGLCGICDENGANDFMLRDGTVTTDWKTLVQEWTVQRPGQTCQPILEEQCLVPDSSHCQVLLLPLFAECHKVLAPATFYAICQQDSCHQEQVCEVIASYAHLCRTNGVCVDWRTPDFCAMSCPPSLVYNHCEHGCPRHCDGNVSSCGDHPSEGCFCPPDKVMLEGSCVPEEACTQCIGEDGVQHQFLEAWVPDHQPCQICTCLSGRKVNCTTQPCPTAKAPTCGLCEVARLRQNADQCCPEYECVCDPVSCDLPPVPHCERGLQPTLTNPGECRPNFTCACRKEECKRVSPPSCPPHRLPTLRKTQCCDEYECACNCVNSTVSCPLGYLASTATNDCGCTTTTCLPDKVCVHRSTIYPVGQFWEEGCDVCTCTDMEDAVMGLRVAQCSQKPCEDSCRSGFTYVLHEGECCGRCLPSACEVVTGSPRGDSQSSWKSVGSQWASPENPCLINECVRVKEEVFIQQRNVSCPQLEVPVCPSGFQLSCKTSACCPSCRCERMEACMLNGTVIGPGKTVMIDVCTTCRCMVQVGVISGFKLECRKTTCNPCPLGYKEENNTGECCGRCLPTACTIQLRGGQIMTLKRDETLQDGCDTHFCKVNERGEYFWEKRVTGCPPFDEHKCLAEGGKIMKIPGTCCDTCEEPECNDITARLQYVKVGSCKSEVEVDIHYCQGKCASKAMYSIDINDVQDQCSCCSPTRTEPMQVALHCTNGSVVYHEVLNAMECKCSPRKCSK
binding of human von Willebrand factor to europium (Eu)-chelate-labeled chimeric GPIb-Fc protein, sequence (P07359 17-335 limits assumed, change not shown): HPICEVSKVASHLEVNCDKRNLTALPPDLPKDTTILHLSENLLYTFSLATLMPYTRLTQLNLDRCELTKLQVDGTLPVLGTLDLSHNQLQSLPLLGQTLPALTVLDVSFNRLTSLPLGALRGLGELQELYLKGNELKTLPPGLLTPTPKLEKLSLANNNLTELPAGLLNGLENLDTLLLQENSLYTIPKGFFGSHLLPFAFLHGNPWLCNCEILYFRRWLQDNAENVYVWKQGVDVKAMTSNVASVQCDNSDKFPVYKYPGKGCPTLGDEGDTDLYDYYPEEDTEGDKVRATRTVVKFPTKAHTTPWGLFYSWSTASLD

This assay concerns the target binding of human von Willebrand factor to europium (Eu)-chelate-labeled chimeric GPIb-Fc protein (Homo sapiens, UniProt P04275+P07359). Kind of assay: Von Willebrand Factor-GPIb Binding Assay (Eu based, botrocetin-induced). Particulars: botrocetin-induced binding of Eu-chelate-labeled chimeric GPIb-Fc to immobilized human vWF; IC50 values as specified in the examples. The method, then:
Activity of compounds of the formula I was shown by an Eu based binding assay in which the binding of human von Willebrand factor to an europium (Eu)-chelate-labeled chimeric GPIb-Fc protein was induced by botrocetin. The preparation of the Eu-chelate-labeled chimeric GPIb-Fc protein is described in detail in a patent application (Fukuchi et al., EP1074564).
A TBS (Tris buffered saline, 20 mM Tris-HCl (pH 7.4) and 0.15 M NaCl) (50 microl) containing human von Willebrand factor (2.5 microg/ml) was added to each well of 1 96-well plate, and the von Willebrand factor was immobilized as a solid phase overnight at 4 dec. Each well was washed once with TBS (150 microl) and blocked with TBS containing 5% BSA (bovine serum albumin) for about 3 hours. Each well of the plate was washed twice with TBS (150 microl), and then added with 25 microl of an assay buffer (Assay Buffer, 1244-106, produced by Wallac) with the compounds, further added with the assay buffer (25 microl) containing the europium (Eu)-chelate-labeled chimeric GPIb-Fc protein (100 ng/ml), labeled with Eu-N1-ITC (Eu-chelate of N^1-(p-isothiocyanatebenzyl)-diethlenetriamine-N^1,N^2,N^3,N^3-tetraacetic acid, 1244-302, produced by Wallac) and botrocetin (500 ng/ml), and left stand at room temperature for 2 hours. The preparation of the Eu-chelate-labeled chimeric GPIb-Fc protein is described in detail in a patent application (Fukuchi et al., EP1074564). Each well of the plate was washed 5 times with TBS (150 microl) containing 0.05% Tween-20, then added with 100 microl of a fluorescence enhancement buffer (Enhancement Solution, 1244-104, produced by Wallac), and shaken for 1 minute. Then, the amount of europium (Eu) was measured by using a 1420 ARVO multi-label counter (produced by Wallac, measurements time: 1 second).
Turning to “4-Amino-N-(4-{[(2-methyl-1H-benzimidazol-5-yl)carbonyl]amino}phenyl)-2-methyl-6-quinolinecarboxamide [Example 28]”, the pIC50 was 5.02.

On to `Cc1cc(NCCC(=O)Nc2ccc3nc(C)cc(N)c3c2)nc(N)n1` [Example 1, 3-(2-Amino-6-methyl-pyrimidin-4-ylamino)-N-(4-amino-2-methyl-quinolin-6-yl)-propionamide], for which the pIC50 was 4.61. Compared with the last compound, the pIC50 is 0.41 log units lower.

`Cc1cc(N)c2cc(NC(=O)c3cccc(Nc4cc(C)[n+](C)c(N)n4)c3)ccc2n1` [Example 2, 2-Amino-4-[3-(4-amino-2-methyl-quinolin-6-ylcarbamoyl)-phenylamino]-1,6-dimethyl-pyrimidin-1-ium] showed a negative logarithm of the IC50 (pIC50) of 5.05.

The compound `Cc1cc(N)c2cc(NC(=O)c3ccc(CNc4cc(C)[n+](C)c(N)n4)cc3)ccc2n1` [Example 3, 2-Amino-4-[4-(4-amino-2-methyl-quinolin-6-ylcarbamoyl)-benzylamino]-1,6-dimethyl-pyrimidin-1-ium] gave a pIC50 of 4.04.

`Cc1cc(N)c2cc(NC(=O)c3ccc(CNC(=O)c4cnccn4)cc3)ccc2n1` [Example 4, Pyrazine-2-carboxylic acid 4-(4-amino-2-methyl-quinolin-6-ylcarbamoyl)-benzylamide] had a pIC50 of 4.12.

Take `Cc1cc(N)c2cc(NC(=O)c3ccc(CNC(=O)c4ccc(N)nc4)cc3)ccc2n1` [Example 5, 6-Amino-N-[4-(4-amino-2-methyl-quinolin-6-ylcarbamoyl)-benzyl]-nicotinamide]: the pIC50 is 4.05. This pIC50 and that of the compound before are within 0.2 log units of each other.

As to `Cc1cc(N)c2cc(NC(=O)c3ccc(CNC(=O)c4cncc(N5CCCC5)n4)cc3)ccc2n1` [Example 6, 6-Pyrrolidin-1-yl-pyrazine-2-carboxylic acid 4-(4-amino-2-methyl-quinolin-6-ylcarbamoyl)-benzylamide], the negative-log IC50 (pIC50) was 4.32.

As to `Cc1cc(N)c2cc(C(=O)Nc3ccc(Nc4cc(C)[n+](C)c(N)n4)cc3)ccc2n1` [Example 7, 2-Amino-4-[(4-{[(4-amino-2-methyl-6-quinolinyl)carbonyl]amino}phenyl)amino]-1,6-dimethylpyrimidin-1-ium], the negative-log IC50 (pIC50) was 5.12.

Compound `Cc1cc(N)c2cc(C(=O)Nc3cccc(Nc4cc(C)[n+](C)c(N)n4)c3)ccc2n1` [Example 8, 2-Amino-4-[(3-{[(4-amino-2-methyl-6-quinolinyl)carbonyl]amino}phenyl)amino]-1,6-dimethylpyrimidin-1-ium] had a negative-log IC50 (pIC50) of 4.08.

On to `Cc1cc(N)c2cc(C(=O)Nc3ccc(CNc4cc(C)[n+](C)c(N)n4)cc3)ccc2n1` [Example 9, 2-Amino-4-[(4-{[(4-amino-2-methyl-6-quinolinyl)carbonyl]amino}benzyl)amino]-1,6-dimethylpyrimidin-1-ium], for which the pIC50 was 4.70.

With `Cc1cc(NCc2ccc(NC(=O)c3ccc4nc(C)cc(N)c4c3)cc2)nc(N)n1` [Example 10, 2-Amino-4-[(4-{[(4-amino-2-methyl-6-quinolinyl)carbonyl]amino}benzyl)amino]-6-methylpyrimidine], the negative-log IC50 (pIC50) was 4.16.

`Cc1cc(N)c2cc(C(=O)Nc3ccc(CNC(=O)c4ccc(Cl)nc4)cc3)ccc2n1` [Example 11, 4-Amino-N-[4-({[(6-chloro-3-pyridinyl)carbonyl]amino}methyl)phenyl]-2-methyl-6-quinolinecarboxamide] gave a pIC50 of 4.37.

In turn, `Cc1cc(N)c2cc(C(=O)Nc3ccc(CNC(=O)c4ccccn4)cc3)ccc2n1` [Example 12, 4-Amino-2-methyl-N-(4-{[(2-pyridinylcarbonyl)amino]methyl}phenyl)-6-quinolinecarboxamide] had a pIC50 of 4.23.

As to `Cc1cc(N)c2cc(C(=O)Nc3ccc(CNC(=O)c4ccnc(Cl)c4)cc3)ccc2n1` [Example 13, 4-Amino-N-[4-({[(2-chloro-4-pyridinyl)carbonyl]amino}methyl)phenyl]-2-methyl-6-quinolinecarboxamide], the negative logarithm of the IC50 (pIC50) is 4.05.

For `Cc1cc(N)c2cc(C(=O)Nc3ccc(CNC(=O)c4cncc(Br)c4)cc3)ccc2n1` [Example 14, 4-Amino-N-[4-({[(3-bromo-5-pyridinyl)carbonyl]amino}methyl)phenyl]-2-methyl-6-quinolinecarboxamide], the negative logarithm of the IC50 (pIC50) was 4.54. Compared with the last compound, the pIC50 is 0.49 log units higher.

For the compound `Cc1cc(N)c2cc(C(=O)Nc3ccc(CNC(=O)c4nccnc4N)cc3)ccc2n1` [Example 15, 4-Amino-N-[4-({[(3-amino-2-pyrazinyl)carbonyl]amino}methyl)phenyl]-2-methyl-6-quinolinecarboxamide], the pIC50 is 4.26.

`Cc1cc(N)c2cc(C(=O)Nc3ccc(NC(=O)c4ccccn4)cc3)ccc2n1` [Example 16, 4-Amino-N-{4-[(2-pyridinylcarbonyl)amino]phenyl}-2-methyl-6-quinolinecarboxamide] gave a negative logarithm of the IC50 (pIC50) of 4.36.

Take `Cc1cc(N)c2cc(C(=O)Nc3ccc(NC(=O)c4cccnc4)cc3)ccc2n1` [Example 17, 4-Amino-N-{4-[(3-pyridinylcarbonyl)amino]phenyl}-2-methyl-6-quinolinecarboxamide]: the pIC50 was 4.82.

In turn, `Cc1cc(N)c2cc(C(=O)Nc3ccc(NC(=O)c4cccnc4Cl)cc3)ccc2n1` [Example 18, 4-Amino-N-(4-{[(2-chloro-3-pyridinyl)carbonyl]amino}phenyl)-2-methyl-6-quinolinecarboxamide] had a pIC50 of 4.28. Against the preceding compound, the pIC50 is 0.54 log units lower.

`Cc1cc(N)c2cc(C(=O)Nc3ccc(NC(=O)c4cncc(Br)c4)cc3)ccc2n1` [Example 19, 4-Amino-N-(4-{[(5-bromo-3-pyridinyl)carbonyl]amino}phenyl)-2-methyl-6-quinolinecarboxamide] showed a negative-log IC50 (pIC50) of 4.68.

As for `Cc1cc(N)c2cc(C(=O)Nc3ccc(NC(=O)c4nccnc4N)cc3)ccc2n1` [Example 20, 4-Amino-N-(4-{[(2-amino-3-pyrazinyl)carbonyl]amino}phenyl)-2-methyl-6-quinolinecarboxamide], the pIC50 was 5.36.

Take `Cc1cc(N)c2cc(C(=O)Nc3ccc(NC(=O)c4cccnc4N)cc3)ccc2n1` [Example 21, 4-Amino-N-(4-{[(2-amino-3-pyridinyl)carbonyl]amino}phenyl)-2-methyl-6-quinolinecarboxamide]: the negative-log IC50 (pIC50) was 4.46. Compared with the last compound, the pIC50 is 0.90 log units lower.

`Cc1cc(N)c2cc(C(=O)Nc3ccc(NC(=O)c4ccc(N)nc4)cc3)ccc2n1` [Example 22, 4-Amino-N-(4-{[(2-amino-5-pyridinyl)carbonyl]amino}phenyl)-2-methyl-6-quinolinecarboxamide]: the pIC50 is 4.95.

In turn, `Cc1cc(N)c2cc(C(=O)Nc3ccc(NC(=O)c4ccc(O)nc4)cc3)ccc2n1` [Example 23, 4-Amino-N-(4-{[(2-hydroxy-5-pyridinyl)carbonyl]amino}phenyl)-2-methyl-6-quinolinecarboxamide] had a negative logarithm of the IC50 (pIC50) of 4.38.

The compound `Cc1cc(N)c2cc(C(=O)Nc3ccc(NC(=O)c4cnccn4)cc3)ccc2n1` [Example 24, 4-Amino-N-(4-{[(2-pyrazinyl)carbonyl]amino}phenyl)-2-methyl-6-quinolinecarboxamide] had a pIC50 of 4.82.

`Cc1cc(N)c2cc(C(=O)Nc3ccc(NC(=O)c4cnc(Cl)c(Cl)c4)cc3)ccc2n1` [Example 25, 4-Amino-N-(4-{[(2,3-dichloro-5-pyridinyl)carbonyl]amino}phenyl)-2-methyl-6-quinolinecarboxamide]: the negative logarithm of the IC50 (pIC50) is 4.64.
